Literature values as cited in patent publication US20010053349A1, “Artificial nail sanitizing solution” (priority 2000, published 2001).

System: nail fungus
Conditions: oral compounds; average; treatment of documented nail fungus

For `CN(C/C=C/C#CC(C)(C)C)Cc1cccc2ccccc12` [terbinafine], the “Clinical and mycological cure rates” value is listed as 70%.
